Like-named read-outs stand apart in the source and are kept apart here.

A short description of series [1]: Pharmacokinetic study in C57Bl6 mice. The class given is in vivo, C57/Bl6 mice. Conditions: 30 mg/kg i.p.; for Cmax: mouse, ip. On the procedure: Animals were administered vehicle (1% n-methyl-2-pyrrolidone (NMP) with 0.5% Tween 80 in 0.5% carboxymethyl cellulose (CMC) in water) or compound 14b dissolved in the same vehicle (30 mg/kg, i.p.), and were euthanized at the appropriate timepoints by isoflurane overdose with decapitation. Trunk blood and brains were taken at 15, 30, 60, 120, and 240 min post-injection. Blood was collected in 5 mL tubes that had been preloaded with 0.5 M EDTA so that the final concentration would be approximately 5 mM. Blood/EDTA was centrifuged at 1000× g at 4 °C for 10 min. Plasma was collected and flash-frozen on dry ice and stored at −80 °C until analysis.
Stock solutions of 14b were prepared and diluted serially to generate standard curve and quality control spiking solutions. The concentrations in plasma and brain homogenate for 14b were 0.5, 1, 5, 10, 50, 100, 500, and 1000 ng/mL for standard curves.
Brains were weighed and homogenized at 1:5 (wt:vol) with 50:50 ethanol:water using a Geno/Grinder 2010 (SPEXSamplePrep, Metuchen, NJ, USA) twice at 1750 rpm for 30 s. Subsequently, 50 µL of plasma or brain homogenate was mixed with 150 µL of acetonitrile containing reserpine as internal standard (100 ng/mL) in a 96-well plate. The plate was shaken at 700 rpm for 3 min and then centrifuged at 4000 rpm for 10 min at 4 C. Then, 50 µL of supernatant was mixed with 50 µL of water in a new plate and analyzed by LC/MS-MS.
A SCIEX Exion AD UHPLC system (Framingham, MA) was used to inject 10 µL of the processed samples/calibration standards onto a Waters Acquity BEH C18 (2.1 mm × 100 mm, […]) column (Milford, MA). Mobile phase A consisted of 0.1% formic acid in water, and mobile phase B consisted of 0.1% formic acid in acetonitrile. […] Quantitation was achieved by multiple reaction monitoring in positive ion mode using an SCIEX 6500+ (Framingham, MA) QTRAP mass spectrometer. Compound 14b was quantitated by monitoring the transition of m/z 445.044 → 251.1, and the internal standard, reserpine, was monitored by m/z 609.300 → 194.9. […]

The target in a further series is T1, human NPSR-107I (Homo sapiens, UniProt Q6W5P4, N107I).
T1 construct: expressed in transfected cells
T1 sequence (Q6W5P4 1-371 N107I): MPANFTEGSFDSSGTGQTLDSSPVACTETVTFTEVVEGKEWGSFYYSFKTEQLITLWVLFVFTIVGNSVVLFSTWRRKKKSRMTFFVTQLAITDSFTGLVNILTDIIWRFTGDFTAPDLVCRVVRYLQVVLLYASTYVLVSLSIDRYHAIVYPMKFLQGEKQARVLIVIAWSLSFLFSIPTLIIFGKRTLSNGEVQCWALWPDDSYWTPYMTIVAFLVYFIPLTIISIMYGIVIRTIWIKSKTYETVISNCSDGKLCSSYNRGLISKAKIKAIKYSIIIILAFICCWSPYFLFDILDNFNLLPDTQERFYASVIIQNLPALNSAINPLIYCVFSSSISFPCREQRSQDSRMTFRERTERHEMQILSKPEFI
Nature of the series: Ca+2 mobilization assay (apparent Ke against NPS). In kind it is cell-based. How it is done:
A stable cell line overexpressing the human NPSR-107I was created in CHO-Gαq16 cells (RD-HGA16, Molecular Devices), as previously described. Briefly, CHO-Gαq16 cells were transfected with pcDNA 3.1 human NPSR-107I using Lipofectamine reagent. Transfected cells were plated into 10 cm^2 dishes 24 h post-transfection and were selected using Geneticin. After 2 weeks, individual clones were selected, grown to confluence, and screened in a functional 96-well calcium mobilization assay that measured the response to NPS (100 nM final). […] A final working clone was chosen for all subsequent studies based on NPS potency and the calcium mobilization signal window. CHO-Gα16-hNPSR-107I cells were cultured in Ham’s F12 media supplemented with 10% FBS, 100 units/mL penicillin, 100 μg/mL streptomycin, 200 μg/mL hygromycin, and 400 μg/mL geneticin. Media were purchased from HyClone (GE Life Sciences); FBS, penicillin/streptomycin, hygromycin, and geneticin were purchased from Invitrogen (Thermo Scientific). The day before the assay, cells were plated into 96-well black-walled assay plates at 25,000–40,000 cells/well in growth medium without selection antibiotics. Cells were incubated overnight at 37 °C, 5% CO2. The FLIPR Calcium 5 assay kit (Molecular Devices) was used according to the manufacturer’s instructions with minor modifications. Briefly, reconstituted dye was diluted in pre-warmed assay buffer (HBSS, 20 mM HEPES, 2.5 mM probenecid, pH 7.4 at 37 °C). Growth medium was removed, and the cells were gently washed with assay buffer. Calcium 5 dye was added to the cells and the plate was incubated for 45 min at 37 °C, 5% CO2. A single concentration of test compound and 10-point concentration–response curves of NPS (ranging from 100 nM to 1 pM) were prepared at 10× the desired final concentration. Cells were pretreated with the test compound or vehicle in a final concentration of 0.25% BSA/1% DMSO for 15 min at 37 °C. Assay plates were read with a FlexStation II instrument (excitation at 485 nm, detection at 525 nm, Molecular Devices). Calcium-mediated changes in fluorescence were monitored every 1.5 s over a 90 s time period. NPS was added during the read and the maximum kinetic […] (SoftMax [Max-Min], Molecular Devices) in relative fluorescent units (RFU) was measured. Data were fitted to a three-parameter logistic curve to generate EC50 values (GraphPad Prism 6.0). Antagonism was quantified by measuring the ratio of equi-active concentrations of agonist measured in the presence or absence of the antagonist. Apparent Ke values were calculated using the equation Ke = [L]/((EC50^+/EC50^−) − 1), where [L] is the concentration of test compound, EC50^+ is the EC50 of NPS with test compound, and EC50^– is the EC50 of NPS alone. Ke values were considered valid when the EC50^+/EC50^− ratio was at least 4. HBSS and HEPES were purchased from Gibco (Thermo Scientific); probenecid, BSA, and DMSO were purchased from Sigma-Aldrich.

Consider `CC(C)CC1(c2ccccc2)OC(=O)C2=C1CN(C(=O)NCc1ccccc1)CC2` (single isomer, unassigned; (+)) [Compound 14b, (+) N-benzyl-3-(2-methylpropyl)-1-oxo-3-phenyl-1H,3H,4H,5H,6H,7H-furo[3,4-c]pyridine-5-carboxamide], for which, in series [1], the Clearance in plasma turned out to be 288 mL/min/kg. Moreover, the Cmax in series [1] (brain, read-out: Cmax in brain) was found to be 186 ng/mL; in series [1] (plasma, read-out: Cmax in plasma) it was 1940 ng/mL. In addition, the “Shift of the agonist activity of NPS” value on human NPSR-107I (3 µM concentration, calcium mobilization assay) was “significant right shift”. Also, the Kb on human NPSR-107I (Calcium Mobilization, CHO-Gα16-hNPSR-107I cells, shift of NPS EC50) was found to be 71.4 nM. Also, the “Potency relative to SHA-68” value at human NPSR-107I (in vitro antagonist potency) is “approximately sevenfold less potent”.

The values are drawn from paper PMC8538004, “Identification of a Novel Neuropeptide S Receptor Antagonist Scaffold Based on the SHA-68 Core” (Pharmaceuticals, 2021).
